According to patent publication US10053458B2, “Pyrimidine-2,4-diamine derivative and anticancer pharmaceutical composition comprising same as effective ingredient” (KOREA RESEARCH INSTITUTE OF CHEMICAL TECHNOLOGY, priority 2014, dated 2018):

Columns and labels:
[1] = system: BaF3 EML4-ALK WT cells; test: Cytotoxicity on BaF3 cell transfected with EML4-ALK WT (WST-1); conditions: Ba/F3 EML4-ALK, 72 h, read-out: BaF3 EML4-ALK WT, IC50 of the cytotoxicity
[2] = system: H2228; test: Cancer cell proliferation inhibition (SRB/MTS), H2228; conditions: Homo sapiens, NCI-H2228, 72 h, read-out: H2228 GI50
Description: (§1) Cancer cell lines used in the experiments were all human-derived cancer cell lines, specifically H2228 and H3122, which are non-small cell lung cancer cell lines.
(§2) The cancer cell proliferation inhibition was measured using the MTS assay as follows. […] Each culture medium was placed in an incubator for 4 hours, taken out and left at room temperature for 10 minutes.

[3] = system: H3122; test: Cancer cell proliferation inhibition (SRB/MTS), H3122; conditions: Homo sapiens, NCI-H3122, 72 h, read-out: H3122 GI50
Description: as §1, §2

GI50 [2] [nM] | GI50 [3] [nM] | Compound | IC50 [1] [nM]
< 50 | < 50 | CCC1(CC)NCCc2cc(Nc3ncc(Cl)c(Nc4ccccc4S(=O)(=O)C(C)C)n3)c(OC)cc21 [Example 74, 5-chloro-N4-(2-(isopropylsulfonyl)phenyl)-N2-(1,1-diethyl-7-methoxy-1,2,3,4-tetrahydroisoquinolin-6-yl)pyrimidine-2,4-diamine] | < 50
< 50 | < 50 | COc1cc2c(cc1Nc1ncc(Cl)c(Nc3ccccc3S(=O)(=O)C(C)C)n1)CNCC2(C)C [Example 75, 5-chloro-N4-(2-(isopropylsulfonyl)phenyl)-N2-(6-methoxy-4,4-dimethyl-1,2,3,4-tetrahydroisoquinolin-7-yl)pyrimidine-2,4-diamine] | < 50
< 50 | < 50 | COc1cc2c(cc1Nc1ncc(Cl)c(Nc3ccccc3S(=O)(=O)C(C)C)n1)CCNC2C(=O)O (stereo not drawn) [Example 76, 6-(5-chloro-4-(2-(isopropylsulfonyl)phenylamino)pyrimidin-2-yl)amino-7-methoxy-1,2,3,4-dihydroisoquinoline-1-carboxylic acid] | < 50
< 50 | < 50 | CCN1CCc2cc(Nc3ncc(Cl)c(Nc4ccccc4S(=O)(=O)C(C)C)n3)c(OC)cc2C1(C)C [Example 77, 5-chloro-N4-(2-(isopropylsulfonyl)phenyl)-N2-(2-ethyl-7-methoxy-1,1-dimethyl-1,2,3,4-tetrahydroisoquinolin-6-yl)pyrimidine-2,4-diamine] | < 50
< 50 | < 50 | COc1cc2c(cc1Nc1ncc(Cl)c(Nc3ccccc3S(=O)(=O)C(C)C)n1)CCN(C(=O)CO)C2(C)C [Example 78, 1-6-(5-chloro-4-(2-(isopropylsulfonyl)phenylamino)pyrimidin-2-yl)amino-7-methoxy-1,1-dimethyl-3,4-dihydroisoquinolin-2(1H)-yl-2-hydroxyethane-1-one] | < 50
< 50 | < 50 | CCN1CCc2cc(Nc3ncc(Cl)c(Nc4ccccc4S(=O)(=O)C(C)C)n3)c(OC(C)C)cc2C1(C)C [Example 79, 5-chloro-N4-(2-(isopropylsulfonyl)phenyl)-N2-(2-ethyl-7-isopropoxy-1,1-dimethyl-1,2,3,4-tetrahydroisoquinolin-6-yl)pyrimidine-2,4-diamine] | < 50
< 50 | < 50 | CC(C)Oc1cc2c(cc1Nc1ncc(Cl)c(Nc3ccccc3S(=O)(=O)C(C)C)n1)CNCC2(C)C [Example 80, 5-chloro-N4-(2-(isopropylsulfonyl)phenyl)-N2-(6-isopropoxy-4,4-dimethyl-1,2,3,4-tetrahydroisoquinolin-7-yl)pyrimidine-2,4-diamine] | < 50
< 50 | < 50 | CCOc1cc2c(cc1Nc1ncc(Cl)c(Nc3ccccc3S(=O)(=O)C(C)C)n1)CN(CC)CC2(C)C [Example 81, 5-chloro-N4-(2-(isopropylsulfonyl)phenyl)-N2-(6-ethoxy-2-ethyl-4,4-dimethyl-1,2,3,4-tetrahydroisoquinolin-7-yl)pyrimidine-2,4-diamine] | < 50
< 50 | < 50 | CCN1Cc2cc(Nc3ncc(Cl)c(Nc4ccccc4S(=O)(=O)C(C)C)n3)c(OC(C)C)cc2C(C)(C)C1 [Example 82, 5-chloro-N4-(2-(isopropylsulfonyl)phenyl)-N2-(2-ethyl-6-isopropoxy-4,4-dimethyl-1,2,3,4-tetrahydroisoquinolin-7-yl)pyrimidine-2,4-diamine] | < 50
< 50 | < 50 | COc1cc2c(cc1Nc1ncc(Cl)c(Nc3ccccc3S(=O)(=O)C(C)C)n1)CNCC21CCCC1 [Example 83, 5-chloro-N4-(2-(isopropylsulfonyl)phenyl)-N2-(6-methoxy-2,3-dihydro-1H-spiro(cyclopentane-1,4-isoquinolin)-7-yl)pyrimidine-2,4-diamine] | < 50
< 50 | < 50 | COc1cc2c(cc1Nc1ncc(Cl)c(Nc3ccccc3S(=O)(=O)C(C)C)n1)C1CNCC(=O)N1CC2(C)C (stereo not drawn) [Example 85] | < 50
< 50 | < 50 | COc1cc2c(cc1Nc1ncc(Cl)c(Nc3ccccc3S(=O)(=O)C(C)C)n1)C1CNCCN1CC2(C)C (stereo not drawn) [Example 86, 5-chloro-N4-(2-(isopropylsulfonyl)phenyl)-N2-(9-methoxy-7,7-dimethyl-1,3,4,6,7,11b-hexahydro-2H-pyrazino[2,1-a]isoquinolin-10-yl)pyrimidine-2,4-diamine] | < 50
< 50 | < 50 | COc1cc2c(c(Br)c1Nc1ncc(Cl)c(Nc3ccccc3S(=O)(=O)C(C)C)n1)CCNC2(C)C [Example 87, 5-chloro-N4-(2-(isopropylsulfonyl)phenyl)-N2-(5-bromo-7-methoxy-1,1-dimethyl-1,2,3,4-tetrahydroisoquinolin-6-yl)pyrimidine-2,4-diamine] | < 50
< 50 | < 50 | COc1cc2c(c(Cl)c1Nc1ncc(Cl)c(Nc3ccccc3S(=O)(=O)C(C)C)n1)CCNC2(C)C [Example 88, 5-chloro-N4-(2-(isopropylsulfonyl)phenyl)-N2-(5-chloro-7-methoxy-1,1-dimethyl-1,2,3,4-tetrahydroisoquinolin-6-yl)pyrimidine-2,4-diamine] | < 50
< 50 | < 50 | COc1c(Nc2ncc(Cl)c(Nc3ccccc3S(=O)(=O)C(C)C)n2)cc2c(c1Br)C(C)(C)NCC2 [Example 89, 5-chloro-N4-(2-(isopropylsulfonyl)phenyl)-N2-(8-bromo-7-methoxy-1,1-dimethyl-1,2,3,4-tetrahydroisoquinolin-6-yl)pyrimidine-2,4-diamine] | < 50
< 50 | < 50 | COc1c(Nc2ncc(Cl)c(Nc3ccccc3S(=O)(=O)C(C)C)n2)cc2c(c1Cl)C(C)(C)NCC2 [Example 90, 5-chloro-N4-(2-(isopropylsulfonyl)phenyl)-N2-(8-chloro-7-methoxy-1,1-dimethyl-1,2,3,4-tetrahydroisoquinolin-6-yl)pyrimidine-2,4-diamine] | < 50
< 50 | < 50 | COc1cc2c(cc1Nc1ncc(Cl)c(Nc3ccccc3S(=O)(=O)C(C)C)n1)CN(C)CC2(C)C [Example 91, 5-chloro-N4-(2-(isopropylsulfonyl)phenyl)-N2-(6-methoxy-2,4,4-trimethyl-1,2,3,4-tetrahydroisoquinolin-7-yl)pyrimidine-2,4-diamine] | < 50
< 50 | < 50 | CCN1Cc2cc(Nc3ncc(Cl)c(Nc4ccccc4S(=O)(=O)C(C)C)n3)c(OC)cc2C(C)(C)C1 [Example 92, 5-chloro-N4-(2-(isopropylsulfonyl)phenyl)-N2-(2-ethyl-6-methoxy-4,4-trimethyl-1,2,3,4-tetrahydroisoquinolin-7-yl)pyrimidine-2,4-diamine] | < 50
< 50 | < 50 | COc1cc2c(cc1Nc1ncc(Cl)c(Nc3ccccc3S(=O)(=O)C(C)C)n1)CN(C(=O)CN(C)C)CC2(C)C [Example 94] | < 50
< 50 | < 50 | COc1cc2c(cc1Nc1ncc(Cl)c(Nc3ccccc3S(=O)(=O)C(C)C)n1)CN(C(=O)CO)CC2(C)C [Example 95] | < 50
< 50 | < 50 | COc1cc2c(cc1Nc1ncc(Cl)c(Nc3ccccc3S(=O)(=O)C(C)C)n1)CNCC21CC1 [Example 96, 5-chloro-N4-(2-(isopropylsulfonyl)phenyl)-N2-(6-methoxy-2,3-dihydro-1H-spiro(cyclopropane-1,4-isoquinolin)-7-yl)pyrimidine-2,4-diamine] | < 50
< 50 | < 50 | CCOc1cc2c(cc1Nc1ncc(Cl)c(Nc3ccccc3S(=O)(=O)C(C)C)n1)CCNC2(C)C [Example 99, 5-chloro-N4-(2-(isopropylsulfonyl)phenyl)-N2-(7-ethoxy-1,1-dimethyl-1,2,3,4-tetrahydroisoquinolin-6-yl)pyrimidine-2,4-diamine] | < 50
< 50 | < 50 | CC(C)S(=O)(=O)c1ccccc1Nc1nc(Nc2cc3c(cc2OC(F)F)C(C)(C)NCC3)ncc1Cl [Example 100, 5-chloro-N4-(2-(isopropylsulfonyl)phenyl)-N2-(7-difluoromethoxy-1,1-dimethyl-1,2,3,4-tetrahydroisoquinolin-6-yl)pyrimidine-2,4-diamine] | < 50
< 50 | < 50 | CCCC1NCCc2cc(Nc3ncc(Cl)c(Nc4ccccc4S(=O)(=O)C(C)C)n3)c(OC)cc21 (stereo not drawn) [Example 102, 5-chloro-N4-(2-(isopropylsulfonyl)phenyl)-N2-(7-methoxy-1-propyl-1,2,3,4-tetrahydroisoquinolin-6-yl)pyrimidine-2,4-diamine] | < 50
< 50 | < 50 | COc1cc2c(cc1Nc1ncc(Cl)c(Nc3ccccc3S(=O)(=O)C(C)C)n1)CCCNC2(C)C [Example 104, 5-chloro-N4-(2-(isopropylsulfonyl)phenyl)-N2-(8-methoxy-1,1-dimethyl-2,3,4,5-tetrahydro-1H-benzo[c]azepin-7-yl)pyrimidine-2,4-diamine] | < 50
< 50 | < 50 | COc1cc2c(cc1Nc1ncc(Cl)c(Nc3ccccc3S(=O)(=O)C(C)C)n1)CCNCC2(C)C [Example 105, 5-chloro-N4-(2-(isopropylsulfonyl)phenyl)-N2-(8-methoxy-1,1-dimethyl-2,3,4,5-tetrahydro-1H-benzo[d]azepin-7-yl)pyrimidine-2,4-diamine] | < 50
